Two molecules from patent US20090075921A1, “Bone/joint disease sensitivity gene and use thereof” (Riken, priority 2004, published 2009) can be followed below.

Assay [1] relates to NHAC. As to the kind of experiment: Time course of asporin gene expression by TGF-β1 in NHAC. It counts as cell-based, human. Particulars: TGF-β1 10 ng/ml. The protocol:
A time course of the expression of the asporin gene by TGF-β1 in NHAC was examined as described below. Cells were inoculated to a 12-well plate at 1×10^5 cells/well, and cultured in a DMEM/F12 containing 10% FBS until they became confluent. The medium was exchanged with a DMEM/F12 containing 0.2% FBS, and the cells were cultured for 24 hours, after which TGF-β1 (10 ng/ml) was added, total RNA was extracted over time, and the expression levels of the asporin and GAPDH genes were examined. As a result, the expression level of the asporin gene maximized when the cells were cultured in the presence of TGF-β1 (10 ng/ml) for 12 hours, and thereafter the expression level decreased over time (FIG. 46).

Assay [2] deals with NHAC. As to the kind of experiment: MTT assay of TGF-β1-stimulated cell growth in NHAC. It counts as cell-based, human. The following applies: TGF-β1 40 ng/ml alone, 5 days. On the procedure:
NHAC was inculated to a 12-well plate at 1×10^5 cells/well, and cultured in a DMEM/F12 containing 10% FBS supplemented with TGF-β1 (40 ng/ml) and asporin (5 or 20 μg/ml) for 5 days, after which the degree of cell growth was examined by the MTT assay method described below. Specifically, 3-(4,5-dimethyl-2-thiazolyl)-2,5-diphenyl-2H-tetrazolium bromide (MTT, Dojindo Laboratory) was dissolved in DMEM/F12 to obtain a concentration of 1 mg/ml, the solution was added to the cells after the medium was removed by suction, and the cells were cultured at 37° C. for 1 hour. Thereafter the medium containing MTT was discarded, and the cells were subjected to extraction treatment using a Lysis reagent (86% isopropanol, 40 mM hydrochloric acid, 1% SDS). This cell lysate was transferred to a 96-well plate, and the absorbance at 550 nm was measured using a microplate reader.

The subject of the next assay is ATDC5. Put plainly: Induction with TGF-β1 of asporin gene expression in ATDC5. It is filed as cell-based, mouse. Particulars: TGF-β1 10 ng/ml, 24 hours. On the procedure: (§1) In various cartilage lineage cell lines, the potential of TGF-β1 for inducing asporin gene expression was examined by the method described below. OUMS-27 was cultured in a DMEM containing 10% FBS, CS-OKB was cultured in an RPMI1640 containing 10% FBS, and normal human articular chondrocytes of knee joint (NHAC-kn, P7, monolayer, Clonetics) were cultured using Chondrocyte Growth Medium (CGM, Clonetics). ATDC5 was cultured using the medium 1-2 described in Example 13. For the induction experiments in the cartilage lineage cell lines, cells were cultured in the above-described media until they became confluent, after which the medium was exchanged with a medium containing 0.2% FBS, and the cells were cultured for 12 hours; TGF-β1 (10 ng/ml) was added, and the cells were further cultured for 24 hours. RNA extraction, cDNA synthesis, and real-time PCR were performed by the methods described in Example 12.

The next assay concerns OUMS-27. Put plainly: Induction with TGF-β1 of asporin gene expression in OUMS-27. It is filed as cell-based, human. The following applies: TGF-β1 10 ng/ml, 24 hours. On the procedure: as §1
Assay [3] deals with NHAC. Put plainly: Articular chondrocyte differentiation maintenance in redifferentiated NHAC. It is filed as cell-based, human. Particulars: 7 days, TGF-β1 40 ng/ml, asporin 20 μg/ml where added. The protocol: NHAC was redifferentiated by alginate beads culture for 2 weeks using a chondrocyte differentiation medium (CDM) manufactured by Cambrex Company according to the protocol attached. These redifferentiated cells were inoculated to a Lab-Tek II chamber slide (Nunc), a DMEM/F12 containing 5% FBS, ITS (Sigma), and TGF-β1 (40 ng/ml) was added, and the cells were allowed to maintain the degree of differentiation thereof; the effects of addition of asporin (20 μg/ml) on the cell morphology and extracellular proteoglycan accumulation were examined.

The test system of the next assay is NHAC-kn. Put plainly: Induction with TGF-β1 of asporin gene expression in NHAC-kn. It counts as cell-based, human. Particulars: TGF-β1 10 ng/ml, 24 hours. The protocol: as §1
The subject of assay [4] is ATDC5 cell lines that stably express human asporin. Put plainly: Cartilage differentiation culture of ATDC5 lines stably expressing human asporin. It is filed as cell-based, mouse. The following applies: stably expressing lines, 5, 9, 15 or 21 days; mock peaks on Day 9. On the procedure: The ATDC5 cell lines that stably express human asporin prepared in Example 17 were inoculated to a 12-well plate at 0.3×10^5 cells/well, and cultured in a medium 1-1 for 5, 9, 15 or 21 days, after which total RNA extraction, purification, cDNA synthesis, and real-time PCR were performed in the same manner as Example 18.

Assay [5] shares this test system. As to the kind of experiment: TGF-βs-stimulated aggrecan and type II collagen gene expression in ATDC5 lines stably expressing human asporin. The following applies: stably expressing lines vs mock, TGF-βs 10 ng/ml, 24 hours. It is filed as cell-based, mouse. The protocol: Plasmid DNAs for allowing ATDC5 cells, a mouse cartilage stem cell line, to stably express human asporin were prepared as described below. First, by the method described below, full-length cDNAs of human asporin D13 and D14 were acquired. Using KOD-plus (Toyobo), according to the method described in the attached protocol, a reaction mixture was prepared. Per 25 μl of the reaction mixture, […] each of a sense strand primer comprising the initiation codon and a restriction enzyme XhoI site, and an antisense strand primer comprising the stop codon of aspotin and a restriction enzyme BamHI site, were used as the primers, and 1 μl (10 ng as total RNA) of a cDNA solution prepared from total RNA extracted from knee articular cartilage from OA patients carrying the D13 allele and the D14 allele of aspartic acid repeat polymorphisms in asporin heterologously was used as the template. […]
The TGF-βs-stimulated expression of the aggrecan and type II collagen genes in ATDC5 cell lines that stably express human asporin was quantified by the method described below. […] For real-time PCR, reactions were performed using QuantiTect SYBR Green PCR Kit (QIAGEN), and detection and quantitation were performed using ABI PRISM 7700. […]

For assay [6], the system named is ATDC5 cell lines that transiently express human asporin. Put plainly: TGF-β1-stimulated aggrecan and type II collagen gene expression in ATDC5 transiently expressing human asporin. Particulars: transient expression vs mock, TGF-β1 10 ng/ml, 18 hours. It counts as cell-based, mouse. On the procedure:
ATDC5 cells were inoculated to a 12-well plate at 0.5×10^5 cells/well, and cultured in a medium 1-2 (DMEM/F12 medium containing 5% FBS, ITS (Sigma), penicillin (100 U/ml) and streptomycin (100 μg/ml)). 24 hours later, pcDNA3.1-ASP13 or pcDNA3.1-ASP14 were introduced using FuGENE-6 (Roche), and the cells were cultured for 24 hours. Next, the medium was exchanged with a medium 1-2 containing 0.2% FBS, and the cells were cultured for 12 hours, after which TGF-β1 (10 ng/ml) was added, and the cells were further cultured for 18 hours, after which total RNA extraction, purification, cDNA synthesis, and real-time PCR were performed in the same manner as Example 18. As a result, the elevation of the TGF-β1-stimulated expression levels of the aggrecan and type II collagen genes was suppressed in the ATDC5 cells allowed to transiently express human asporin D13 or D14 compared to mock (FIG. 14).
First, the expression level of the aggrecan gene elevated by TGF-β1 stimulation in mock is written as (AM), and the expression level of the type II collagen gene at the same time is written as (CM). Next, the TGF-β1-stimulated aggrecan gene expression level suppressed by the forced expression of asporin D13 is written as (A13), and the type II collagen gene expression level at the same time is written as (C13). […] Thus, the suppression rate of the TGF-β1-stimulated aggrecan gene expression in the asporin D13 expressing line can be expressed as (A13)/(AM), and the suppression rate of the type II collagen gene expression as (C13)/(CM). Likewise, the suppression rate of the TGF-β1-stimulated aggrecan gene expression in the asporin D14 expressing line can be expressed as (A14)/(AM), and the suppression rate of the type II collagen gene expression as (C14)/(CM). Furthermore, by making a correction by dividing these values by the human asporin mRNA content obtained with TGF-β1 stimulation, the suppression rate of the aggrecan and type II collagen gene expression per human asporin mRNA content were calculated. […]

The test system of assay [7] is ATDC5 cell lines that stably express human asporin. Put plainly: Alcian Blue staining of extracellular proteoglycan in ATDC5 lines stably expressing human asporin. It is filed as cell-based, mouse. The following applies: Day 21 of cultivation, absorbance at 630 nm. On the procedure:
The ATDC5 cell lines that stably express human asporin prepared in Example 17 were cultured by the method described in Example 20; using the cells on Day 21 after the start of cultivation, Alcian Blue staining was performed as described below. First, the medium was removed by suction, and the cell surface was washed with cold PBS three times, after which methanol fixation was performed at 4° C. for 2 minutes. The methanol was removed by suction, the cells were once rinsed with distilled water, and then stained using 0.1% Alcian Blue 8GX (Sigma)/3% acetic acid solution at 4° C. for 2 days. The staining solution was removed, the cells were washed with distilled water three times, and then examined under microscope and photographed. Thereafter, the cells were treated with aqueous solution of 6 M guanidine hydrochloride to extract the stained proteoglycan, after which the absorbance at 630 nm was measured.

For the molecule “TGF-β1: TGF-β isoform, regulatory factor of cartilage differentiation used as stimulus”, the “culture time at which the expression level of the asporin gene maximized” value in the assay on NHAC [1] is 12 h. Moreover, the “expression level of asporin after 3 days in the presence of TGF-β1” value in the assay on NHAC [1] (vs control) was “smaller than that without induction”. Also, the “cell growth of NHAC (MTT, absorbance at 550 nm)” value in the assay on NHAC [2] is listed as “increased”. In addition, the “expression of asporin with TGF-β1 stimulation” value in the assay on ATDC5 is “tended to be slightly suppressed”. The “expression of the asporin gene with TGF-β1 stimulation” value in the assay with OUMS-27 is on record as “significant increases”. Besides, in the assay on NHAC [3], the “Safranine-O stainability (extracellular proteoglycan)” value is listed as “positive” and the cell morphology entry was “egg-like morphology”. In addition, in the assay on NHAC-kn, the “expression of the asporin gene with TGF-β1 stimulation” value was “significant increases”.

B1: human asporin D13: human asporin with 13 aspartic acid repeats, expressed from pcDNA3.1-ASP13 (SEQ ID NO:4) (protein, UniProt Q9BXN1 33-380, looked up)
Asporin: DMEDTDDDDDDDDDDDDDDEDNSLFPTREPRSHFFPFDLFPMCPFGCQCYSRVVHCSDLGLTSVPTNIPFDTRMLDLQNNKIKEIKENDFKGLTSLYGLILNNNKLTKIHPKAFLTTKKLRRLYLSHNQLSEIPLNLPKSLAELRIHENKVKKIQKDTFKGMNALHVLEMSANPLDNNGIEPGAFEGVTVFHIRIAEAKLTSVPKGLPPTLLELHLDYNKISTVELEDFKRYKELQRLGLGNNKITDIENGSLANIPRVREIHLENNKLKKIPSGLPELKYLQIIFLHSNSIARVGVNDFCPTVPKMKKSLYSAISLFNNPVKYWEMQPATFRCVLSRMSVQLGNFGM
Regarding B1, the “expression of the aggrecan and type II collagen genes during cartilage differentiation culture” value in assay [4] is on record as “did not rise”. Further, the figures for the “elevation of the TGF-β1-stimulated expression levels of the aggrecan and type II collagen genes” value in [5] and in [6] were “suppressed compared to mock” and “suppressed”, respectively. In assay [7], the “intensity of staining with Alcian Blue (extracellular proteoglycan)” value was “mock>D13>D14”.
